What was measured:
[1] = Solubility in testing medium; format: physicochemical; conditions: PBS + Tween 80 (2% w/w), pH 7.4, aqueous with cosolvent or surfactant or cyclodextrin
hA3AR = molecular target: T1, hA3AR (Homo sapiens, UniProt P0DMS8); assay: Competition binding, [125I]AB-MECA, hA3 CHO cell membranes; conditions: displacement of [125I]AB-MECA, hA3 CHO cells; mean ± SEM of four assays
T1 construct: host or cells: CHO cells
T1 sequence (P0DMS8 1-318): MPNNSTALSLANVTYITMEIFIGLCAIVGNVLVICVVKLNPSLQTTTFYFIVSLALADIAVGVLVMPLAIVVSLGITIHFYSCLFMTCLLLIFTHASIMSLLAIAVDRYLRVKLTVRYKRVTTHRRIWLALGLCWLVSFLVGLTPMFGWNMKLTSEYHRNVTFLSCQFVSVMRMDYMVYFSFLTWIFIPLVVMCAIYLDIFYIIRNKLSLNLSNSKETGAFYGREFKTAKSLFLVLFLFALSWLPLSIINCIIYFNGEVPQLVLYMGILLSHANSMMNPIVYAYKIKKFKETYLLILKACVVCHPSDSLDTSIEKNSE
Method: (§1) CHO cells transfected with hA1, hA2A, hA2B and hA3 ARs (Perkin Elmer, Boston, MA, USA) were grown adherently and maintained in Dulbecco’s modified Eagle’s medium with nutrient mixture F12, containing 10% fetal calf serum, penicillin (100 U/mL), streptomycin (100 μg/mL), L-glutamine (2 mM) and geneticine (G418; 0.2 mg/mL), at 37 °C, in 5% CO2/95% air, until their use in cAMP assays. For membrane preparation, the culture medium was removed, and the cells were washed with phosphate-buffered saline and scraped off T75 flasks in ice-cold hypotonic buffer (5 mM Tris HCl, 1 mM EDTA, pH 7.4). The cell suspension was homogenized with a Polytron, centrifuged for 30 min at 40,000× g, at 4 °C, and the resulting membrane pellet was used for competition binding experiments.
All synthesized compounds were tested for their affinity to hA1, hA2A and hA3 ARs. Competition experiments to hA1AR were carried out by incubating 1 nM [^3H]-8-cyclopentyl-1,3-dipropylxanthine ([^3H]-DPCPX) with membrane suspension (50 μg of protein/100 μL) and different concentrations of the examined compounds at 25 °C for 90 min in 50 mM Tris HCl, pH 7.4. Non-specific binding was defined as binding in the presence of 1 μM DPCPX and was always <10% of the total binding. Inhibition experiments to hA2A ARs were performed by incubating the radioligand [^3H]-4-(-2-[7-amino-2-{2-furyl}{1,2,4}triazolo{2,3-a} {1,3,5}triazin-5-yl-amino]ethyl)phenol ([^3H]-ZM241385) (1 nM) with the membrane suspension (50 μg of protein/100 μL) and different concentrations of the examined compounds for 60 min, at 4 °C, in 50 mM Tris HCl (pH 7.4), 10 mM MgCl2. Non-specific binding was determined in the presence of ZM241385 (1 μM) and was about 20% of the total binding. Competition binding experiments to A3ARs were carried out by incubating the membrane suspension (50 μg of protein/100 μL) with 0.5 nM [^125I]-N6-(4-aminobenzyl)-N-methylcarboxamidoadenosine ([^125I]-ABMECA) in the presence of different concentrations of the examined compounds for an incubation time of 120 min, at 4 °C, in 50 mM Tris HCl (pH 7.4), 10 mM MgCl2, 1 mM EDTA. Non-specific binding was defined as binding in the presence of 1 μM ABMECA and was always <10% of the total binding. Bound and free radioactivity were separated by filtering the assay mixture through Whatman GF/B glass-fiber filters, using a Brandel cell harvester (Brandel Instruments, Unterföhring, Germany). The filter bound radioactivity was counted by Packard Tri Carb 2810 TR scintillation counter (Perkin Elmer).
The protein concentration was determined according to a Bio-Rad method, with bovine albumin as a standard reference. Inhibitory binding constant (Ki) values were calculated from those of IC50 according to the Cheng–Prusoff equation, Ki = IC50/(1 + [C*]/KD*), where [C*] is the concentration of the radioligand, and KD* its dissociation constant. Ki and IC50 values were calculated by non-linear regression analysis, using the equation for a sigmoid concentration-response curve (Graph-PAD Prism, San Diego, CA, USA).

hA2B AR = molecular target: T2, hA2B AR (Homo sapiens, UniProt P29275); assay: cAMP assay in CHO cells expressing hA2B AR (stimulation of cAMP production); format: cell-based; conditions: for Emax at 1 µM: CHO, 1 µM compound, in comparison with NECA (1 µM = 100%), read-out: Efficacy hA2B (cAMP assay) (converted); for EC50: hA2B CHO cells, mean ± SEM of four assays
T2 construct: host or cells: CHO cells
T2 sequence (P29275 1-332): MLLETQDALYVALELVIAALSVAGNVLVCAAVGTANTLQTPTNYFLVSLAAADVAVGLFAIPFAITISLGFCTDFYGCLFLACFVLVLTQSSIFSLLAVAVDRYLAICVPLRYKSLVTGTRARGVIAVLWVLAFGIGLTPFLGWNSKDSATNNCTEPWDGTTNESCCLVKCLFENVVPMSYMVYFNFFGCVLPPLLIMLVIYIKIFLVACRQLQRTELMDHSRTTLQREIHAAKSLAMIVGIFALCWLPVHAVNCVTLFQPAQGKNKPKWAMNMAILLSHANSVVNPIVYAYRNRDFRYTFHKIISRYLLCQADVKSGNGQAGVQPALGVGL
Method: The amino-3,5-dicyanopyridines 1–21 were tested for their affinity at hA1, hA2A and hA3 ARs, stably transfected in Chinese Hamster Ovary (CHO) cells. Moreover, they were also studied as hA2B agonists by evaluating their stimulatory effect on cAMP production in CHO cells, stably expressing the hA2B AR. […] Due to their interesting pan profile, both compounds 1 and 5 were evaluated as AR agonists also at the hA2A and hA3 subtypes.
as §1
CHO cells transfected with hAR subtypes were washed with phosphate-buffered saline, detached with tripsine and centrifuged for 10 min at 200× g. Cells were seeded in a 96-well white half-area microplate (Perkin Elmer, Boston, USA) in a stimulation buffer composed of Hank Balanced Salt Solution, 5 mM HEPES, 0.5 mM Ro 20–1724, 0.1% BSA. The cAMP levels were then quantified by using the AlphaScreen cAMP Detection Kit (Perkin Elmer, Boston, MA, USA), following the manufacturer’s instructions. At the end of the experiments, the plates were read with a Perkin Elmer EnSight Multimode Plate Reader.

solubility [1] [µg/mL]	Ki (hA3AR) [nM]	Emax at 1 µM (hA2B AR) [%]	EC50 (hA2B AR) [nM]	Structure (SMILES)
40.6 ± 0.16	52 ± 5	52	1.4 ± 0.2	N#Cc1c(N)nc(SCc2ncc[nH]2)c(C#N)c1-c1ccco1 [Compound 1, 2-Amino-4-(furan-2-yl)-6-[(1H-imidazol-2-ylmethyl)sulfanyl]pyridine-3,5-dicarbonitrile]
27.3 ± 2.52	25 ± 2	73	1.12 ± 0.11	N#Cc1c(N)nc(SCc2ncc[nH]2)c(C#N)c1-c1cccs1 [Compound 5, 2-Amino-6-[(1H-imidazol-2-ylmethyl)sulfanyl]-4-(thiophen-2-yl)pyridine-3,5-dicarbonitrile]

Reference: paper PMC9024521, “4-Heteroaryl Substituted Amino-3,5-Dicyanopyridines as New Adenosine Receptor Ligands: Novel Insights on Structure-Activity Relationships and Perspectives” (Pharmaceuticals, 2022)
